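48-hour exposure; five concentrations; linearly interpolated endpoints. GI50: concentration for 50% inhibition of growth. TGI: concentration producing complete growth inhibition.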
Key:
Experiment in all cases: inhibition of tumour cell growth, NCI panel, 48 h
[1] = tested on: OVCAR-4 ovarian
[2] = tested on: OVCAR-3 ovarian
[3] = tested on: SF-268 CNS
[4] = tested on: COLO 205 colon
[5] = tested on: K-562 leukemia
[6] = tested on: HOP-62 NSCLC
[7] = tested on: NCI-H226 lung
[8] = tested on: SR leukemia
[9] = tested on: A498 renal
[10] = tested on: U251 CNS
[11] = tested on: HCC-2998 colon
[12] = tested on: BT-549 breast
[13] = tested on: SK-MEL-28 melanoma
[14] = tested on: HT29 colon
[15] = tested on: OVCAR-8 ovarian
[16] = tested on: M14 melanoma
[17] = tested on: MDA-MB-435
[18] = tested on: 786-0 renal
[19] = tested on: HL-60(TB) leukemia
[20] = tested on: RPMI-8226 leukemia
[21] = tested on: T-47D breast
[22] = tested on: OVCAR-5 ovarian
[23] = tested on: SK-MEL-5 melanoma
[24] = tested on: SNB-75 CNS
[25] = tested on: ACHN renal
[26] = tested on: NCI/ADR-RES ovarian
[27] = tested on: HCT-15 colon
[28] = tested on: MDA-MB-231 breast
[29] = tested on: DU-145 prostate

Cc1sc(C(=O)c2cncnc2N[C@@H]2C[C@H](COS(N)(=O)=O)[C@@H](O)C2)cc1[C@@H]1NCCc2ccc(Cl)cc21
GI50 [1]: 4.38 µM | TGI [1]: 31.1 µM | GI50 [2]: 4.98 µM | TGI [2]: 21.7 µM | GI50 [3]: 14.4 µM | TGI [3]: 32.4 µM | GI50 [4]: 0.041 µM | TGI [4]: 11.8 µM | GI50 [5]: 4.19 µM | TGI [5]: 34.2 µM | GI50 [6]: 12.9 µM | TGI [6]: 28.1 µM | GI50 [7]: 10.3 µM | TGI [7]: 25.7 µM | GI50 [8]: 0.547 µM | TGI [8]: 26.3 µM | GI50 [9]: 4.26 µM | TGI [9]: 20.2 µM | GI50 [10]: 10.9 µM | TGI [10]: 26.7 µM | GI50 [11]: 0.922 µM | TGI [11]: 19.9 µM | GI50 [12]: 12.8 µM | TGI [12]: 26.6 µM | GI50 [13]: 9.88 µM | TGI [13]: 22.1 µM | GI50 [14]: 0.234 µM | TGI [14]: 20.9 µM | GI50 [15]: 11.7 µM | TGI [15]: 58.7 µM | GI50 [16]: 0.572 µM | TGI [16]: 21.6 µM | GI50 [17]: 0.156 µM | TGI [17]: 14.8 µM | GI50 [18]: 12.9 µM | TGI [18]: 28.8 µM | GI50 [19]: 0.294 µM | TGI [19]: 13.2 µM | GI50 [20]: 2.01 µM | TGI [20]: 22.2 µM | GI50 [21]: 2.37 µM | TGI [21]: 29.3 µM | GI50 [22]: 9.43 µM | TGI [22]: 23.6 µM | GI50 [23]: 1.94 µM | TGI [23]: 17.3 µM | GI50 [24]: 1.65 µM | TGI [24]: 20.1 µM | GI50 [25]: 11.8 µM | TGI [25]: 25.7 µM | GI50 [26]: 51.8 µM | TGI [26]: > 100 µM | GI50 [27]: 6.64 µM | TGI [27]: 21.1 µM | GI50 [28]: 9.29 µM | TGI [28]: 24.8 µM | GI50 [29]: 13.2 µM | TGI [29]: 27.8 µM

Source: PubChem BioAssay (NCI)
